According to PubChem BioAssay (NCI):
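Values below derive from 48-hour exposures of cells grown in 96-well plates, with endpoints linearly interpolated between the two concentrations bracketing the appropriate inhibition level. The concentration for full growth arrest is given as TGI.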

How the values were obtained:
Assay in all cases: growth of human tumour cells (NCI), 48 h
786-0 renal = tested on: 786-0 renal
A498 renal = tested on: A498 renal
A549 NSCLC = tested on: A549 NSCLC
ACHN renal = tested on: ACHN renal
CAKI-1 renal = tested on: CAKI-1 renal
CCRF-CEM leukemia = tested on: CCRF-CEM leukemia
COLO 205 colon = tested on: COLO 205 colon
DU-145 prostate = tested on: DU-145 prostate
EKVX NSCLC = tested on: EKVX NSCLC
HCC-2998 colon = tested on: HCC-2998 colon
HCT-116 colon = tested on: HCT-116 colon
HCT-15 colon = tested on: HCT-15 colon
HL-60(TB) leukemia = tested on: HL-60(TB) leukemia
HOP-62 NSCLC = tested on: HOP-62 NSCLC
HOP-92 NSCLC = tested on: HOP-92 NSCLC
HS 578T breast = tested on: HS 578T breast
HT29 colon = tested on: HT29 colon
IGROV1 ovarian = tested on: IGROV1 ovarian
K-562 leukemia = tested on: K-562 leukemia
KM12 colon = tested on: KM12 colon
LOX IMVI melanoma = tested on: LOX IMVI melanoma
M14 melanoma = tested on: M14 melanoma
MCF7 breast = tested on: MCF7 breast
MDA-MB-231 breast = tested on: MDA-MB-231 breast
MDA-MB-435 = tested on: MDA-MB-435
MDA-N = tested on: MDA-N
MOLT-4 leukemia = tested on: MOLT-4 leukemia
NCI-H23 lung = tested on: NCI-H23 lung
NCI-H460 lung = tested on: NCI-H460 lung
NCI-H522 lung = tested on: NCI-H522 lung
NCI/ADR-RES ovarian = tested on: NCI/ADR-RES ovarian
OVCAR-3 ovarian = tested on: OVCAR-3 ovarian
OVCAR-4 ovarian = tested on: OVCAR-4 ovarian
OVCAR-5 ovarian = tested on: OVCAR-5 ovarian
OVCAR-8 ovarian = tested on: OVCAR-8 ovarian
PC-3 prostate = tested on: PC-3 prostate
RPMI-8226 leukemia = tested on: RPMI-8226 leukemia
RXF 393 renal = tested on: RXF 393 renal
SF-268 CNS = tested on: SF-268 CNS
SF-295 CNS = tested on: SF-295 CNS
SF-539 CNS = tested on: SF-539 CNS
SK-MEL-28 melanoma = tested on: SK-MEL-28 melanoma
SK-MEL-5 melanoma = tested on: SK-MEL-5 melanoma
SK-OV-3 ovarian = tested on: SK-OV-3 ovarian
SN12C renal = tested on: SN12C renal
SNB-75 CNS = tested on: SNB-75 CNS
SR leukemia = tested on: SR leukemia
SW-620 colon = tested on: SW-620 colon
T-47D breast = tested on: T-47D breast
TK-10 renal = tested on: TK-10 renal
U251 CNS = tested on: U251 CNS
UACC-257 melanoma = tested on: UACC-257 melanoma
UACC-62 melanoma = tested on: UACC-62 melanoma
UO-31 renal = tested on: UO-31 renal
MALME-3M melanoma = tested on: MALME-3M melanoma
SK-MEL-2 melanoma = tested on: SK-MEL-2 melanoma
SNB-19 CNS = tested on: SNB-19 CNS

SMILES: O=CCOCc1cc2c(cc1Br)OCO2
- TGI (786-0 renal): 36.7 µM
- TGI (A498 renal): > 100 µM
- TGI (A549 NSCLC): > 100 µM
- TGI (ACHN renal): 55.1 µM
- TGI (CAKI-1 renal): 42.7 µM
- TGI (CCRF-CEM leukemia): 47.7 µM
- TGI (COLO 205 colon): > 100 µM
- TGI (DU-145 prostate): > 100 µM
- TGI (EKVX NSCLC): > 100 µM
- TGI (HCC-2998 colon): > 100 µM
- TGI (HCT-116 colon): 45 µM
- TGI (HCT-15 colon): 46.1 µM
- TGI (HL-60(TB) leukemia): 48.8 µM
- TGI (HOP-62 NSCLC): > 100 µM
- TGI (HOP-92 NSCLC): > 100 µM
- TGI (HS 578T breast): 44.7 µM
- TGI (HT29 colon): 38.6 µM
- TGI (IGROV1 ovarian): > 100 µM
- TGI (K-562 leukemia): > 100 µM
- TGI (KM12 colon): > 100 µM
- TGI (LOX IMVI melanoma): 47.1 µM
- TGI (M14 melanoma): 46.7 µM
- TGI (MCF7 breast): 42.9 µM
- TGI (MDA-MB-231 breast): 44.4 µM
- TGI (MDA-MB-435): > 100 µM
- TGI (MDA-N): > 100 µM
- TGI (MOLT-4 leukemia): > 100 µM
- TGI (NCI-H23 lung): 28.7 µM
- TGI (NCI-H460 lung): > 100 µM
- TGI (NCI-H522 lung): 33.3 µM
- TGI (NCI/ADR-RES ovarian): 40.4 µM
- TGI (OVCAR-3 ovarian): 35.7 µM
- TGI (OVCAR-4 ovarian): 45.8 µM
- TGI (OVCAR-5 ovarian): > 100 µM
- TGI (OVCAR-8 ovarian): 52.5 µM
- TGI (PC-3 prostate): 59.6 µM
- TGI (RPMI-8226 leukemia): > 100 µM
- TGI (RXF 393 renal): > 100 µM
- TGI (SF-268 CNS): 47.8 µM
- TGI (SF-295 CNS): > 100 µM
- TGI (SF-539 CNS): 50.2 µM
- TGI (SK-MEL-28 melanoma): > 100 µM
- TGI (SK-MEL-5 melanoma): 36.1 µM
- TGI (SK-OV-3 ovarian): > 100 µM
- TGI (SN12C renal): > 100 µM
- TGI (SNB-75 CNS): > 100 µM
- TGI (SR leukemia): 68.1 µM
- TGI (SW-620 colon): 50.3 µM
- TGI (T-47D breast): 61.6 µM
- TGI (TK-10 renal): > 100 µM
- TGI (U251 CNS): 90.5 µM
- TGI (UACC-257 melanoma): > 100 µM
- TGI (UACC-62 melanoma): > 100 µM
- TGI (UO-31 renal): 42.9 µM

SMILES: CO[C@]12CC(=O)C3(C(C[C@H]4CC5CCC6=CC(=O)CC[C@]6(OC(C)=O)C5C[C@@]43C)C1)C1C[C@H]3[C@@H]4CCC5=CC(=O)CC[C@]5(OC(C)=O)[C@H]4CC[C@]3(C)C12 (some centres undefined)
- TGI (786-0 renal): > 100 µM
- TGI (A498 renal): > 100 µM
- TGI (A549 NSCLC): > 100 µM
- TGI (ACHN renal): > 100 µM
- TGI (CAKI-1 renal): > 100 µM
- TGI (CCRF-CEM leukemia): > 100 µM
- TGI (COLO 205 colon): 56.7 µM
- TGI (DU-145 prostate): > 100 µM
- TGI (EKVX NSCLC): > 100 µM
- TGI (HCC-2998 colon): > 100 µM
- TGI (HCT-116 colon): > 100 µM
- TGI (HCT-15 colon): > 100 µM
- TGI (HL-60(TB) leukemia): > 100 µM
- TGI (HOP-62 NSCLC): > 100 µM
- TGI (HOP-92 NSCLC): > 100 µM
- TGI (HS 578T breast): > 100 µM
- TGI (HT29 colon): > 100 µM
- TGI (IGROV1 ovarian): > 100 µM
- TGI (K-562 leukemia): > 100 µM
- TGI (LOX IMVI melanoma): > 100 µM
- TGI (M14 melanoma): > 100 µM
- TGI (MALME-3M melanoma): > 100 µM
- TGI (MCF7 breast): > 100 µM
- TGI (MDA-MB-231 breast): 74.7 µM
- TGI (MDA-MB-435): > 100 µM
- TGI (MDA-N): > 100 µM
- TGI (MOLT-4 leukemia): > 100 µM
- TGI (NCI-H23 lung): > 100 µM
- TGI (NCI-H460 lung): > 100 µM
- TGI (NCI-H522 lung): > 100 µM
- TGI (NCI/ADR-RES ovarian): > 100 µM
- TGI (OVCAR-3 ovarian): > 100 µM
- TGI (OVCAR-4 ovarian): > 100 µM
- TGI (OVCAR-5 ovarian): > 100 µM
- TGI (OVCAR-8 ovarian): > 100 µM
- TGI (PC-3 prostate): > 100 µM
- TGI (RPMI-8226 leukemia): > 100 µM
- TGI (SF-268 CNS): > 100 µM
- TGI (SF-295 CNS): > 100 µM
- TGI (SF-539 CNS): > 100 µM
- TGI (SK-MEL-2 melanoma): > 100 µM
- TGI (SK-MEL-28 melanoma): > 100 µM
- TGI (SK-MEL-5 melanoma): > 100 µM
- TGI (SK-OV-3 ovarian): > 100 µM
- TGI (SN12C renal): > 100 µM
- TGI (SNB-19 CNS): > 100 µM
- TGI (SNB-75 CNS): > 100 µM
- TGI (SR leukemia): > 100 µM
- TGI (SW-620 colon): > 100 µM
- TGI (T-47D breast): > 100 µM
- TGI (TK-10 renal): > 100 µM
- TGI (U251 CNS): > 100 µM
- TGI (UACC-257 melanoma): > 100 µM
- TGI (UACC-62 melanoma): > 100 µM
- TGI (UO-31 renal): > 100 µM
